In patent US20180000085A1, “USE OF PICOLINAMIDE COMPOUNDS WITH FUNGICIDAL ACTIVITY” (DOW AGROSCIENCES LLC, priority 2014, published 2018):

Assays:
[1] = test system: Zymoseptoria tritici; test: Leaf blotch of wheat (SEPTTR) disease control on wheat seedlings; type: in vivo; parameters: key to SEPTTR 1DP, HV activity at 100 ppm (% control rating) / SEPTTR 3DC, HV activity at 100 ppm (% control rating) / SEPTTR disease control, 1DP / SEPTTR disease control, 3DC / SEPTTR 1DP disease control rating, HV activity / SEPTTR 3DC disease control rating, HV activity / SEPTTR 3DC, LV activity at 125.1 g/H (% Control rating) / SEPTTR 1DP, LV activity at 125.1 g/H (% Control rating) / SEPTTR 1DP disease control rating, LV activity at 125.1 g/H / SEPTTR 3DC disease control rating, LV activity at 125.1 g/H / SEPTTR 3DC disease control rating, HV activity at 100 ppm / SEPTTR 1DP disease control rating, HV activity at 100 ppm / HV activity at 100 ppm SEPTTR 3DC (disease control rating) / HV activity at 100 ppm SEPTTR 1DP (disease control rating) / LV activity at 125.1 g/H SEPTTR 1DP (disease control rating) / LV activity at 125.1 g/H SEPTTR 3DC (disease control rating): A: > 80; B: ≤ 80; C: Not Tested; D: No Activity Observed in the Reported Assay; settings: for SEPTTR 1DP disease control rating, HV activity / SEPTTR 3DC disease control rating, HV activity: HV application at 100 ppm; for SEPTTR 1DP disease control rating, HV activity / LV activity at 125.1 g/H SEPTTR 1DP (disease control rating) / SEPTTR 1DP, LV activity at 125.1 g/H (% Control rating): 1 Day Protectant; for SEPTTR 1DP disease control rating, HV activity / SEPTTR 3DC disease control rating, HV activity / LV activity at 125.1 g/H SEPTTR 1DP (disease control rating) / LV activity at 125.1 g/H SEPTTR 3DC (disease control rating): wheat leaf blotch; for SEPTTR 3DC disease control rating, HV activity / LV activity at 125.1 g/H SEPTTR 3DC (disease control rating) / SEPTTR 3DC, LV activity at 125.1 g/H (% Control rating): 3 Day Curative; for LV activity at 125.1 g/H SEPTTR 1DP (disease control rating) / LV activity at 125.1 g/H SEPTTR 3DC (disease control rating) / SEPTTR 1DP, LV activity at 125.1 g/H (% Control rating) / SEPTTR 3DC, LV activity at 125.1 g/H (% Control rating): low volume application; for SEPTTR 1DP disease control rating, HV activity at 100 ppm / SEPTTR 3DC disease control rating, HV activity at 100 ppm: high volume application; for SEPTTR 1DP disease control rating, HV activity at 100 ppm: 1 day protectant; for SEPTTR 3DC disease control rating, HV activity at 100 ppm: 3 day curative
[2] = test system: Puccinia triticina; test: Wheat brown rust (PUCCRT) disease control on wheat seedlings; type: in vivo; parameters: key to PUCCRT 3DC, HV activity at 100 ppm (% control rating) / PUCCRT disease control, 3DC / PUCCRT 1DP disease control rating, HV activity / PUCCRT 3DC disease control rating, HV activity / PUCCRT 3DC, LV activity at 125.1 g/H (% Control rating) / PUCCRT 1DP, LV activity at 125.1 g/H (% Control rating) / PUCCRT 3DC disease control rating, LV activity at 125.1 g/H / PUCCRT 1DP disease control rating, LV activity at 125.1 g/H / PUCCRT 3DC disease control rating, HV activity at 100 ppm / PUCCRT 1DP disease control rating, HV activity at 100 ppm / HV activity at 100 ppm PUCCRT 3DC (disease control rating) / LV activity at 125.1 g/H PUCCRT 1DP (disease control rating) / LV activity at 125.1 g/H PUCCRT 3DC (disease control rating): A: > 80; B: ≤ 80; C: Not Tested; D: No Activity Observed in the Reported Assay; settings: for PUCCRT 1DP disease control rating, HV activity / PUCCRT 3DC disease control rating, HV activity: HV application at 100 ppm; for PUCCRT 1DP disease control rating, HV activity / LV activity at 125.1 g/H PUCCRT 1DP (disease control rating) / PUCCRT 1DP, LV activity at 125.1 g/H (% Control rating): 1 Day Protectant; for PUCCRT 1DP disease control rating, HV activity / PUCCRT 3DC disease control rating, HV activity / LV activity at 125.1 g/H PUCCRT 1DP (disease control rating) / LV activity at 125.1 g/H PUCCRT 3DC (disease control rating): wheat brown rust; for PUCCRT 3DC disease control rating, HV activity / LV activity at 125.1 g/H PUCCRT 3DC (disease control rating) / PUCCRT 3DC, LV activity at 125.1 g/H (% Control rating): 3 Day Curative; for LV activity at 125.1 g/H PUCCRT 1DP (disease control rating) / LV activity at 125.1 g/H PUCCRT 3DC (disease control rating) / PUCCRT 1DP, LV activity at 125.1 g/H (% Control rating) / PUCCRT 3DC, LV activity at 125.1 g/H (% Control rating): low volume application; for PUCCRT 1DP disease control rating, HV activity at 100 ppm / PUCCRT 3DC disease control rating, HV activity at 100 ppm: high volume application; for PUCCRT 1DP disease control rating, HV activity at 100 ppm: 1 day protectant; for PUCCRT 3DC disease control rating, HV activity at 100 ppm: 3 day curative

CCC(CC)C(Oc1ccc(-c2ccccc2)cc1)C(C)OC(=O)C(C)NC(=O)c1nccc(OC)c1O (centres unmarked) [Cmpd 387]
SEPTTR 1DP disease control rating, HV activity [1]: D | SEPTTR 3DC disease control rating, HV activity [1]: D | PUCCRT 1DP disease control rating, HV activity [2]: B (≤ 80) | PUCCRT 3DC disease control rating, HV activity [2]: D

CC(NC(=O)c1nccc(Cl)c1O)C(=O)OC(C)C(Oc1ccccc1)C(C)C (centres unmarked) [Cmpd 425]
SEPTTR 1DP disease control rating, HV activity [1]: D | SEPTTR 3DC disease control rating, HV activity [1]: D | PUCCRT 1DP disease control rating, HV activity [2]: B (≤ 80) | PUCCRT 3DC disease control rating, HV activity [2]: D

CC[C@@H](CCOC)[C@@H](Oc1ccccc1)[C@H](C)OC(=O)[C@@H](C)NC(=O)c1nccc(OC)c1O [Cmpd 308]
SEPTTR 1DP disease control rating, HV activity [1]: D | SEPTTR 3DC disease control rating, HV activity [1]: B (≤ 80) | PUCCRT 1DP disease control rating, HV activity [2]: D | PUCCRT 3DC disease control rating, HV activity [2]: D

COc1ccnc(C(=O)N[C@@H](C)C(=O)O[C@@H](C)[C@H](OCC2CC2)C2CC2)c1OC(C)=O [Cmpd 1066]
LV activity at 125.1 g/H SEPTTR 1DP (disease control rating) [1]: B (≤ 80) | LV activity at 125.1 g/H SEPTTR 3DC (disease control rating) [1]: B (≤ 80) | LV activity at 125.1 g/H PUCCRT 1DP (disease control rating) [2]: B (≤ 80) | LV activity at 125.1 g/H PUCCRT 3DC (disease control rating) [2]: A (> 80)

COc1ccnc(C(=O)N[C@@H](C)C(=O)O[C@@H](C)[C@H](OCC2CC2)C(C)(C)C)c1OC(C)=O [Cmpd 1071]
LV activity at 125.1 g/H SEPTTR 1DP (disease control rating) [1]: B (≤ 80) | LV activity at 125.1 g/H SEPTTR 3DC (disease control rating) [1]: B (≤ 80) | LV activity at 125.1 g/H PUCCRT 1DP (disease control rating) [2]: A (> 80) | LV activity at 125.1 g/H PUCCRT 3DC (disease control rating) [2]: A (> 80)

C=CC(OC(=O)C(C)NC(=O)c1nccc(OC)c1OCOC(C)=O)C(Oc1ccccc1)C(C)C (centres unmarked) [Cmpd 1092]
LV activity at 125.1 g/H SEPTTR 1DP (disease control rating) [1]: D | LV activity at 125.1 g/H SEPTTR 3DC (disease control rating) [1]: D | LV activity at 125.1 g/H PUCCRT 1DP (disease control rating) [2]: B (≤ 80) | LV activity at 125.1 g/H PUCCRT 3DC (disease control rating) [2]: B (≤ 80)

CCOc1ccnc(C(=O)N[C@@H](C)C(=O)O[C@@H](C)[C@@H](CC(C)C)Oc2cccc(Cl)c2)c1OC(C)=O [Cmpd 1109]
LV activity at 125.1 g/H SEPTTR 1DP (disease control rating) [1]: D | LV activity at 125.1 g/H SEPTTR 3DC (disease control rating) [1]: B (≤ 80) | LV activity at 125.1 g/H PUCCRT 1DP (disease control rating) [2]: B (≤ 80) | LV activity at 125.1 g/H PUCCRT 3DC (disease control rating) [2]: B (≤ 80)

C=CC[C@@H](OCC1CC1)[C@H](C)OC(=O)[C@H](C)NC(=O)c1nccc(OC)c1O [Cmpd 1024]
SEPTTR 1DP disease control rating, HV activity at 100 ppm [1]: D | SEPTTR 3DC disease control rating, HV activity at 100 ppm [1]: B (≤ 80) | PUCCRT 1DP disease control rating, HV activity at 100 ppm [2]: B (≤ 80) | PUCCRT 3DC disease control rating, HV activity at 100 ppm [2]: A (> 80)

COCC[C@H](Cc1ccc(F)cc1)[C@@H](OC(=O)C(C)C)[C@H](C)OC(=O)[C@H](C)NC(=O)c1nccc(OC)c1OCOC(C)=O [Cmpd 499]
SEPTTR 1DP, LV activity at 125.1 g/H (% Control rating) [1]: D | SEPTTR 3DC, LV activity at 125.1 g/H (% Control rating) [1]: B (≤ 80) | PUCCRT 1DP, LV activity at 125.1 g/H (% Control rating) [2]: A (> 80) | PUCCRT 3DC, LV activity at 125.1 g/H (% Control rating) [2]: A (> 80)

COc1ccnc(C(=O)N[C@@H](C)C(=O)O[C@@H](C)[C@H](Oc2cc(F)cc(Cl)c2)c2ccccc2)c1OCOC(C)=O [Cmpd 641]
SEPTTR 1DP, LV activity at 125.1 g/H (% Control rating) [1]: A (> 80) | SEPTTR 3DC, LV activity at 125.1 g/H (% Control rating) [1]: A (> 80) | PUCCRT 1DP, LV activity at 125.1 g/H (% Control rating) [2]: A (> 80) | PUCCRT 3DC, LV activity at 125.1 g/H (% Control rating) [2]: B (≤ 80)

COc1ccnc(C(=O)N[C@@H](C)C(=O)O[C@@H](C)[C@H](Oc2ccc(C)cc2Cl)C(C)(C)C)c1O [Cmpd 1006]
SEPTTR 1DP disease control rating, HV activity at 100 ppm [1]: B (≤ 80) | SEPTTR 3DC disease control rating, HV activity at 100 ppm [1]: B (≤ 80) | PUCCRT 1DP disease control rating, HV activity at 100 ppm [2]: A (> 80) | PUCCRT 3DC disease control rating, HV activity at 100 ppm [2]: A (> 80)
